Test results as given in PMC3231940, “Disposition, metabolism and mass balance of [^14C]apremilast following oral administration” (Xenobiotica; the Fate of Foreign Compounds in Biological …, 2011).

Experiments:
[1] = Metabolite profiling by HPLC radiochromatography in plasma, urine and faeces; format: in vivo, human; design: key to Plasma (% AUC relative to TRA); share of circulating radioactivity / % of dose excreted, urine: ND: not detected; D: detected by MS, but at concentrations too low to accurately quantify by radiochromatography
Method: Individual plasma samples collected from all subjects at 0.5, 1, 2.5, 8, 24, 36 and 48 h post-dose were analysed for metabolite profiling. A pooled sample (equal volume from 0.5,1,2.5,8 and 24 h) from subject 1 was also used for metabolite profiling. Three volumes of acetonitrile were added to each sample, followed by mixing and centrifu-gation. The supernatant was removed and the pellet was washed twice with acetonitrile. The combined superna-tants were evaporated to dryness under a stream of nitrogen. The residues were re-suspended in acetonitrile: 1% formic acid in water (1:1), assayed for extraction recovery and analysed for metabolite profiling.
For each subject, urine samples were pooled using an equal percentage by volume of the 0-4, 4-8, 8-12 and 12-24-h samples. The 24-48-h urine sample from each subject and a pool of the 0-168-h urine samples from subject 1 were also analysed for metabolite profiling. Samples were mixed and centrifuged prior to the supernatants being transferred to fresh tubes for metabolite profiling analysis.
Faecal homogenates for metabolite profiling were pooled using an equal percentage by weight to generate two pools (0-48 h and 48-96 h) for each subject. An additional pool (0-168 h) was prepared using the samples collected from subject 1. An aliquot (approximately 6 g) of each pool was extracted with three volumes of acetonitrile; samples were mixed and centrifuged. The supernatant was removed and the pellets were extracted twice with an additional 12 mL of acetonitrile each time. The combined supernatants were evaporated to dryness under a stream of nitrogen and the residue was re-suspended in a small volume (approximately 400 μL) of acetonitrile: 1% formic acid in water (1:1). Samples were assayed for extraction recovery prior to metabolite profiling.
HPLC analysis for metabolite profiling was performed using a Shimadzu LC-10ADVP (Shimadzu Corp., Columbia, MD) or a Waters 2695 Alliance Separation Module (Waters Corp., Milford, MA) with the autosampler set to an ambient temperature of approximately 22°C. ASPD-10A VPUV-Vis Detector or a Waters 996 Photodiode array detector set to 254 nm was used to detect UV absorbance. [^14C]Apremilast and metabolites were separated using a Phenomenex Luna C 18(2) column (150 × 4.6 mm, 3 μm; Phenomenex, Torrance, CA) equipped with a RP-18 guard column (15×3.2 mm, 7 μm) or using an ACE 3 C18 column (150 × 4.6 mm, 3 μm; Advanced Chromatography Technologies, Aberdeen, Scotland) equipped with an ACE 3 guard column (10×3mm, 3 μm). The mobile phases used were 0.4% formic acid in water; pH 3.2 with ammonium hydroxide (mobile phase A) and acetonitrile (mobile phase B). The column temperature was 30°C and the flow rate was 0.7mL/min. The linear gradient was delivered as follows: 0-5 min to 100% A; 5-20 min to 85% A; 20-30 min hold at 85% A; 30-50 min to 65% A; 50-60 min to 60% A; 60-70 min to 50% A; 70-75 min to 0% A; hold at 0% A until 80 min; return to initial conditions over 2 min.
Radioactivity profiles for excreta were determined by radiochromatography using liquid chromatography-accurate radioisotope counting stop-flow system (LC-ARC; AIM Research Company, Wilmington, DE). Radioactivity was detected using a β-Ram Radioflow detector (IN/US Systems, Brandon, FL) equipped with a 1300-μL liquid cell. Liquid scintillation cocktail and column eluate were mixed at a ratio of 2.5:1. Radioactive peaks were quantified using LC-ARC data handling software. Plasma radioactivity profiles were determined by collecting the column eluate into 96-well Deepwell LumaPlates at a rate of 0.25 min/fraction. The plates were dried and the radioactivity in each well determined using a PerkinElmer TopCount NXT Microplate Scintillation Counter. HPLC radiochromatograms were reconstructed using LC-ARC data handling software.
Pharmacokinetic data were generated by non-compartmental analysis of plasma or whole blood versus time profiles using WinNonlin (version 4.1, Enterprise Edition). […]

[2] = tested on: PDE4 enzyme isolated from U937 human monocytic cells; assay: PDE4 inhibition, cAMP hydrolysis assay; format: biochemical
Method: (§1) PDE4 enzyme was isolated from U937 human monocytic cells and used for testing inhibition in a cAMP hydrolysis assay as previously described ([Schafer et al. 2010]). For the TNF-α production assay, human peripheral blood mono-nuclear cells (PBMC) were isolated from buffy coat of normal donor blood units (Blood Center of New Jersey, East Orange, NJ) by density centrifugation over Ficoll Hypaque (Pharmacia, Piscataway, NJ). Cells were cultured in RPMI 1640 (Life Technologies, Grand Island, NY) supplemented with 5% AB^+ human serum (Gemini Bio-products, Woodland, CA), 2-mM L-glutamine, 100-U/mL penicillin and 100-μg/mL streptomycin (Life Technologies). PBMC (2×10^5 cells) were plated in 96-well flat-bottom Costar tissue culture plates (Corning, NY) in duplicate. Cells were stimulated with lipopolysaccharides (LPS) (from Salmonella abortus equi; Sigma cat.no. L-1887, St.Louis, MO) at a final concentration of 1 ng/mL in the absence or presence of compounds. The compounds were dissolved in DMSO (Sigma) and subsequent dilutions were done in culture medium immediately before use. The compounds were added to cells 1 h before LPS stimulation. The cells were incubated for 16-18 h at 37°C in 5% CO2, and super-natants were then collected, diluted with culture medium and assayed for TNF-α levels by enzyme-linked immunosorbent assay (ThermoFisher, Rockford, IL). Fifty percent inhibitory concentrations (IC50) for the PDE4 enzymatic and TNF-α assay were calculated by non-linear regression analysis using Prism 5.1 (GraphPad Software). Regression curves were sigmoidal dose response curves with maximum and minimum constrained to 100% and 0%, respectively.

[3] = tested on: TNF-α production by human peripheral blood mononuclear cells; assay: TNF-α production assay in LPS-stimulated PBMC; format: cell-based; conditions: LPS 1 ng/mL, 16-18 h, ELISA
Method: as §1

## CCOc1cc([C@@H](CS(C)(=O)=O)N2C(=O)c3cccc(NC(=O)CO)c3C2=O)ccc1OC [Metabolite M17]
[1]; AUC0-t (unchanged drug or metabolite)/AUC0-48 (TRA) * 100%
  Plasma (% AUC relative to TRA); share of circulating radioactivity: D
[1]; faeces collected up to 96-h post-dose
  % of dose excreted, faeces: 0.9 % of dose
[1]; plasma
  Concentration in circulation relative to apremilast: < 2%
[1]; urine collected up to 48-h post-dose
  % of dose excreted, urine: 1.2 % of dose
[2]; PDE4 from U937 cells, cAMP hydrolysis
  IC50: 94 nM
[2]; both assays, in words
  PDE4 and TNF-α inhibition activity compared with apremilast: IC50 values similar to those of apremilast
[3]
  IC50: 21 nM
